Reference: patent publication US20190298772A1, “COMBINATION THERAPY OF A T CELL-BASED THERAPY AND A BTK INHIBITOR” (Juno Therapeutics, Inc., priority 2016, published 2019)

Legend:
[1] = test system: anti-CD19 CAR+ T cells; experiment: Pharmacokinetic analysis of CAR+ T cells and tumor cells in blood, bone marrow and spleen; format: in vivo, NSG mice
Protocol: (§1) NSG mice described in Example 2 were intravenously injected on day 0 with 5×10^5 Nalm-6 cells expressing firefly luciferase. […] To permit assessment of the effect of a combination therapy with the inhibitor, a suboptimal dose of anti-CD19 CAR T cells was i.v. injected into the mice at 5×10^5/mouse at day 5. As a control, mice were administered the vehicle control without administration of the CAR-T cells or inhibitor.
Samples were analyzed to assess presence and levels of CAR T cells (based on expression of the surrogate marker using an anti-EGFR antibody) and/or tumor cells at days 7, 12, 19 and 26 post CAR+ T cell transfer.

[2] = test system: anti-CD19 CAR+ T cells; experiment: Ex vivo immunophenotyping (t-SNE) of CAR+ T cells from bone marrow at day 12; format: in vivo, NSG mice; conditions: day 12 post CAR T transfer
Protocol: as §1
Cells were assessed for surface markers CD44, CD45RA, CD62L, CD154, CXCR3, CXCR4, and PD-1 by flow cytometry and T-distributed stochastic neighbor embedding (t-SNE) high dimensional analysis was performed using FlowJo software. […] FACs histograms showing the individual expression profiles of CD4, CD8, CD62L, CD45RA, CD44 and CXCR3 from the 4 gated t-SNE in FIG. 8B overlaid on the expression of the total population (shaded) is shown in FIG. 8C.

[3] = test system: CD19+Nalm-6 disseminated tumor line; experiment: Nalm-6 disseminated tumor xenograft mouse model, ibrutinib in drinking water; format: in vivo, NSG mice
Protocol: as §1

[4] = test system: anti-CD19 CAR T cells; experiment: Cytolytic activity of anti-CD19 CAR T cells co-cultured with K562-CD19 target cells in the presence of ibrutinib; format: cell-based, human
From the text: (§2) To generate CAR-expressing T cells, T cells were isolated by immunoaffinity-based enrichment from three healthy human donor subjects, and cells from each donor were activated and transduced with a viral vector encoding an anti-CD19 CAR. The CAR contained an anti-CD19 scFv, an Ig-derived spacer, a human CD28-derived transmembrane domain, a human 4-1BB-derived intracellular signaling domain and a human CD3 zeta-derived signaling domain. The nucleic acid construct encoding the CAR also included a truncated EGFR (tEGFR) sequence for use as a transduction marker, separated from the CAR sequence by a self-cleaving T2A sequence.
(§3) CAR-expressing CD4+ and CD8+ cells were mixed 1:1 for each donor, individually, and the pooled cells for each donor assessed in vitro under various conditions.
CAR T cells generated as described above were plated in triplicate on Poly-D-Lysine plates and then co-cultured with ibrutinib-resistant CD19-expressing target cells (K562 cells transduced to express CD19, K562-CD19) at an effector to target (E:T) ratio of 2.5:1. The target cells were labeled with NucLight Red (NLR), to permit tracking of target cells by microscopy.

[5] = test system: anti-CD19 CAR T cells; experiment: TH1 phenotype and marker flow cytometry of CAR T cells from serial restimulation; format: cell-based, human
Protocol: (§4) The ability of cells to expand ex vivo following repeated stimulations in some aspects can indicates capacity of CAR-T cells to persist (e.g., following initial activation) and/or is indicative of function and/or fitness in vivo (Zhao et al. (2015) Cancer Cell, 28:415-28). Anti-CD19 CAR+ T cells generated as described above were plated in triplicate at 100,000 cells/well on 96 well Poly-D-Lysine coated plates, and irradiated target cells (K562-CD19) were added at an effector to target ratio of 2.5:1. […] A total of 7 rounds of stimulation during a 25 day culture period were carried out.
A serial restimulation assay was performed as described above and cells were harvested at various times and analyzed by flow cytometry to assess percentage of TH1-phenotype (assessed as CD4+CXCR3+CRTH2−) T cells or TH2-phenotype (assessed as CD4+CXCR3−CRTH2+).

[6] = test system: CD19+Nalm-6 disseminated tumor line; experiment: Nalm-6 disseminated tumor xenograft mouse model, ibrutinib by daily oral gavage; format: in vivo, NOD/Scid/gc−/− (NSG) mice
From the text: On day zero (0), NSG mice were intravenously injected with 5×10^5 Nalm-6 cells expressing firefly luciferase. […] To permit assessment of the effect of a combination therapy with the inhibitor, a suboptimal dose of anti-CD19 CAR T cells from two different donors (generated by transducing cells derived from samples of human donor subjects essentially as described above) were i.v. injected into each mouse at a concentration of 5×10^5 CAR+ T cells per mouse at day 5. […] Eight (N=8) mice per group were monitored.
Following treatment as described above, tumor growth over time was measured by bioluminescence imaging and the average radiance (p/s/cm^2/sr) was measured. Survival of treated mice also was assessed over time.

[7] = test system: anti-CD19 CAR T cells; experiment: Gene expression analysis (Nanostring Immune V2 panel) after 18 days serial stimulation; format: cell-based, human; conditions: 50 nM or 500 nM; day 18
From the text: At day 18 after serial stimulation, RNA was isolated from anti-CD19 CAR T cells and Nanostring Immune V2 panel tests were run across 594 genes. The log 2 (fold change) of each gene was plotted against the −log 10(Raw p-value) derived from ANOVA tests of unscaled housekeeping gene normalized to count data for treatment versus control.

[8] = test system: anti-CD19 CAR T cells; experiment: Cytokine production in supernatants of CAR-T / K562-CD19 co-cultures (MSD); format: cell-based, human
From the text: as §2, §3
CAR-T cells generated as described above were plated at 100,000 cells/well on 96 well Poly-D-Lysine coated plates to which irradiated target cells (K562-CD19) were added at an effector to target ratio of 2.5:1. […] Culture supernatants were harvested every 24 hrs at days 1, 2, 3 and 4, and IFNγ, IL-2, TNFα, IL-4 and IL-10 were measured from the culture supernatants using cytokine kits from Meso Scale Discovery (MSD).

[9] = test system: anti-CD19 CAR T cells; experiment: Serial restimulation assay of anti-CD19 CAR+ T cells with K562-CD19 target cells; format: cell-based, human
From the text: as §2, §3, §4

[10] = test system: anti-CD19 CAR-T cells from DLBCL subjects; experiment: Serial restimulation and cytolytic function of anti-CD19 CAR-T cells manufactured from DLBCL patients; format: cell-based, human
From the text: Anti-CD19 CAR-T cells were generated substantially as described in Example 1, except that T cells were isolated from two different human subjects having diffuse large B-cell lymphoma (DLBCL). […] Cells were subjected to serial restimulation over a 21 day culture period and monitored for cell expansion and cytotoxic activity.

[11] = test system: anti-CD19 CAR T cells; experiment: Expression of CAR-T cell surface markers by flow cytometry after stimulation with irradiated K562-CD19 cells; format: cell-based, human
From the text: as §2, §3
CAR-T cells generated as described above were plated at 100,000 cells/well on 96 well Poly-D-Lysine coated plates. Irradiated K562-CD19 target cells were added at an effector to target ratio of 2.5:1. […] Cells were harvested at 1, 2, 3, and 4 days, and were analyzed by flow cytometry for T cell activation and differentiation surface markers CD69, CD107a, PD-1, CD25, CD38, CD39, CD95, CD62L, CCR7, CD45RO and for truncated EGFR (a surrogate marker for CAR-transduced cells).

[12] = test system: CAR-expressing T cells; experiment: RNA-Seq molecular signature of CAR-expressing T cells after 18 days serial stimulation; format: cell-based, human; conditions: day 18
Protocol: RNA isolation was performed using the RNEasy Micro Kit (Qiagen). Samples were sequenced and RNASeq reads were mapped to the human genome (GRCh38) and aligned to the GENCODE release 24 gene model. […] Differentially expressed genes were identified by imposing a log2 fold change cutoff of 0.5 and a Benjamini-Hochberg adjusted false discovery rate (FDR) cutoff of 0.05.

C=CC(=O)N1CCC[C@@H](n2nc(-c3ccc(Oc4ccccc4)cc3)c3c(N)ncnc32)C1 [ibrutinib]
tumor cells in blood, bone marrow or spleen vs vehicle ([1]; CAR+ cell treatment combined with ibrutinib): significantly fewer tumor cells
circulating CAR+ T cells vs CAR+ T cells and vehicle ([1]; blood, days 7-26 post transfer, ibrutinib in drinking water): significant increase in circulating CAR+ T cells
number of cells in the blood ([1]; day 19 post CAR-T cell transfer, p<0.05): significant increase in the number of cells in the blood
population 4 (CD4+CD44hi CXCR3 CD45RAhi CD62Lhi) as share of CAR-T cells ([2]; bone marrow, ibrutinib-treated animals): 15.2%
populations 2 and 4 in bone marrow vs control mice ([2]; CAR T plus ibrutinib): increase
tumor growth vs CAR T with vehicle ([3]; ibrutinib 25 mg/kg/day in drinking water plus CAR T): significantly (P<0.001) decreased tumor growth
median survival vs CAR T + vehicle ([3]; ibrutinib 25 mg/kg/day in drinking water plus suboptimal anti-CD19 CAR-T cells, p<0.001): increased median survival
cytolytic function of anti-CD19 CAR T cells ([4]; all concentrations tested (5000, 500, 50, 5, 0.5 nM) during co-culture): did not inhibit the cytolytic function
target cell killing ([4]; one donor, P<0.0001): modestly increased target cell killing
cytolytic activity of anti-CD19 CAR-expressing T cells (target cell killing normalized to untreated control, AUC) ([4]; two donors, up to supra-physiological 500 nM, E:T 2.5:1, 4 days): did not significantly impact cytolytic activity
percentage of TH1 cells ([5]; 500 nM, 18-day serial stimulation, P<0.01): further enhanced the percentage of TH1 cells
additional CAR T activation or memory markers ([5]; CAR T cells from serial stimulation assay): No significant effects
percentage of CAR+ T cells with TH1 phenotype (CD4+CXCR3+CRTH2−) ([5]; after serial stimulation, greater with increasing concentrations): increase the percentage
median survival vs CAR T + vehicle ([6]; ibrutinib 25 mg/kg qd P.O. plus suboptimal anti-CD19 CAR T cells, FIG. 6C): increased median survival
tumor growth vs CAR-T cells and vehicle ([6]; ibrutinib 25 mg/kg qd P.O. plus suboptimal dose anti-CD19 CAR T cells): significantly decreased tumor growth
tumor burden (average radiance) vs vehicle ([6]; ibrutinib alone, 25 mg/kg qd P.O., no CAR-T cells): no effect on tumor burden
survival at greater time points vs CAR T and vehicle ([6]; ibrutinib plus CAR T, two donors, FIG. 6D, p<0.001): significantly increased survival
gene expression across 594 genes [7]: did not significantly alter gene expression
IFN-γ and IL-2 production ([8]; 50 nM ibrutinib): some increase
cytokine production ([8]; 50 nM ibrutinib, some donors): modestly increased cytokine production
cytokine concentrations ([8]; physiological concentrations of ibrutinib): did not significantly decrease cytokine concentrations
CD62L expression by flow cytometry ([9]; after 18 days serial stimulation, donors 2 and 3): significant increase in CD62L expression
cell numbers and population doublings ([9]; day 18, 50 and 500 nM, two of three donors): enhanced cell numbers and population doublings
cell counts ([9]; donor 3, day 18, highest concentration tested): Non-significant, increased cell counts
cytolytic activity ([10]; 50 nM, after 16 days, one patient, P<0.01): increase in cytolytic activity
cytolytic function ([10]; 500 nM, after 16 days serial stimulation, each subject): increase in cytolytic function
proliferation (cell doublings) of patient-derived CAR T cells ([10]; 50 and 500 nM, 21 day culture, two DLBCL patients): did not inhibit the proliferation
expression of truncated EGFR, CD25, CD38, CD39, CD95, CD62L, CCR7, CD45RO ([11]; 5000, 500, 50, 5 and 0.5 nM, 3 donors, up to 4 days): no significant effect
phenotype as central (TCM) or effector (TEM) memory subsets (CCR7, CD45RA) ([11]; over four days after stimulation): did not affect the phenotype
expression levels of CD69, CD107a or PD-1 on CD4+ or CD8+ cells ([11]; seen at highest (supraphysiological) concentration): subtle decrease
gene expression changes ([12]; 50 nM): not significant, similar trends
number of protein-coding genes with significantly altered expression ([12]; 500 nM, FDR<0.05, absLog2FC>0.5): 23
expression of HES6, HIC1, LZTFL1, NRIP1, CD38 and RARRES3 ([12]; ibrutinib vs control): downregulation
expression of MSC ([12]; ibrutinib vs control): upregulation
expression of SELL/CD62L ([12]; ibrutinib vs control): increases
expression of granzyme A and CD38 ([12]; ibrutinib vs control): decreases
